Results published in patent US11472788B2, “Benzoimidazoles as selective inhibitors of indoleamine 2,3-dioxygenases” (BEIGENE, LTD., priority 2017, dated 2022).

Experiments:
Recombinant IDO1 = Recombinant IDO1 (Homo sapiens (Human), UniProt P14902); experiment: IDO1 enzymatic assay; assay type: biochemical; details: 50 nM IDO1, 1.3 mM D-tryptophan, pH 7.5, read-out: Enzyme assay IC50
Experimental: Recombinant IDO1 was overexpressed and purified from E. coli cells with an N-terminal His tag. IDO1 enzymatic assay was carried out using a methodology similar to described in the literature (J. Biol. Chem. (1980), 255, 1339-1345). The reaction mixture contains 50 nM IDO1, 1.3 mM D-tryptophan, 5 mM L-ascorbic acid, […] methylene Blue, 0.4 mg/mL catalase and compound (or DMSO) in a buffer containing 50 mM potassium phosphate pH 7.5 and 0.1% BSA. After incubation at 24° C. for 1.5 hours, absorbance of the reaction mixture was continuously read at 321 nm to monitor the formation of N′-formylkynurenine by a FULOstar OMEGA plate reader (BMG LABTECH) for 1 hour. The enzymatic activity was determined by measuring the slope of the linear absorbance increase as a function of time. The IC50s are calculated based on remaining enzyme activity in the presence of increasing concentrations of compounds.

[1] = target: cellular IDO1 in HeLa cells (Homo sapiens (Human), UniProt P14902); experiment: HeLa Cell-Based IDO1 Kyn (Kynurenine) Production Assay; details: IFN-γ induced IDO1, 48 hours incubation, Kyn absorbance at 480 nm
Procedure, shortened: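 Compounds added to HeLa cells together with IFN-γ (100 ng/mL final) and 0.4 mM L-Trp, 48 h at 37 °C. Kynurenine in TCA-deproteinized supernatant measured colorimetrically with 4-(dimethylamino)benzaldehyde at 480 nm; IC50 from four-parameter logistic fit.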

Sequence of cellular IDO1 in HeLa cells (P14902 whole entry): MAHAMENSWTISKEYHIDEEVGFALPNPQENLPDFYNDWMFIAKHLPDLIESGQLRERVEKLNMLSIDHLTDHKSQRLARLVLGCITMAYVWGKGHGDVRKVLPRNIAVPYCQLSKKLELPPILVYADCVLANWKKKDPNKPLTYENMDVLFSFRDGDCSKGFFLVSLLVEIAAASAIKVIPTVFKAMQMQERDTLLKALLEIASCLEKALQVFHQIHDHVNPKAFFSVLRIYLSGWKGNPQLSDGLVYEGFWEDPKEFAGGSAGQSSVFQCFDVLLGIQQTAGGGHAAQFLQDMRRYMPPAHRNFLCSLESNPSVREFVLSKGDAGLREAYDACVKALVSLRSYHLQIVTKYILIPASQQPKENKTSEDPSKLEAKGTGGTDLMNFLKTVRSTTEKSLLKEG
Sequence of Recombinant IDO1 (P14902 whole entry, species assumed): as the sequence (P14902 whole entry) above

IC50 (Recombinant IDO1) [nM] | EC50 [1] [nM] | Structure (SMILES)
 | 1430 | Fc1ccc2[nH]c([C@H]3CC[C@H](c4ccnc5ccc(F)cc54)CC3)nc2c1 [Example C5a, 6-fluoro-4-((1r,4r)-4-(5-fluoro-1H-benzo[d]imidazol-2-yl)cyclohexyl)quinoline]
 | 19.6 | CC(c1nc2ccc(N)cc2[nH]1)[C@H]1CC[C@@H](c2ccnc3ccc(F)cc32)CC1 (stereo partly shown) [Example B169, 2-(1-((1s,4s)-4-(6-fluoroquinolin-4-yl)cyclohexyl)ethyl)-1H-benzo[d]imidazol-6-amine]
 | 1.2 | Cc1noc(-c2ccc3[nH]c(C(C)[C@H]4CC[C@@H](c5ccnc6ccc(F)cc65)CC4)nc3c2)n1 (stereo partly shown) [Example B217]
 | 8.1 | C[C@@H](c1nc2ccc(C3=NCCO3)cc2[nH]1)[C@H]1CC[C@@H](c2ccnc3ccc(F)cc32)CC1 [Example B197, 2-(2-((R)-1-((1s,4S)-4-(6-fluoroquinolin-4-yl)cyclohexyl)ethyl)-1H-benzo[d]imidazol-6-yl)-4,5-dihydrooxazole]
 | 3.1 | C[C@@H](c1nc2cc(-c3ccccc3)c(F)cc2[nH]1)[C@H]1CC[C@@H](c2ccnc3ccc(F)cc32)CC1 [B156]
 | 0.38 | C[C@@H](c1nc2cc(Cl)c(F)cc2[nH]1)[C@H]1CC[C@@H](c2ccnc3ccc(F)cc32)CC1 [Example B2a, 4-((1R,4s)-4-((S)-1-(5-chloro-6-fluoro-1H-benzo[d]imidazol-2-yl)ethyl)cyclohexyl)-6-fluoroquinoline]
 | 36.2 | CC(=O)Nc1ccc2nc([C@H](C)[C@H]3CC[C@@H](c4ccnc5ccc(F)cc54)CC3)[nH]c2c1 [Example B179, N-(2-((R)-1-((1r,4R)-4-(6-fluoroquinolin-4-yl)cyclohexyl)ethyl)-1H-benzo[d]imidazol-6-yl)acetamide]
 | 2.9 | CC(C)OC(=O)c1ccc2nc([C@H](C)[C@H]3CC[C@@H](c4ccnc5ccc(F)cc54)CC3)[nH]c2c1 [B176]
 | 45.9 | C[C@@H](c1nc2cc(F)c(F)c(Cl)c2[nH]1)[C@H]1CC[C@@H](c2ccnc3ccc(F)cc32)CC1 [Example B189, 4-((1R,4s)-4-((S)-1-(7-chloro-5,6-difluoro-1H-benzo[d]imidazol-2-yl)ethyl)cyclohexyl)-6-fluoroquinoline]
 | 69 | Clc1ccc2[nH]c(CCC3CC4CC3CC4c3ccccc3)nc2c1 (stereo not shown) [Example D2, 5-chloro-2-(2-(5-phenylbicyclo[2.2.1]heptan-2-yl)ethyl)-1H-benzo[d]imidazole]
 | 1.14 | COC(=O)c1ccc2nc(C(C)[C@H]3CC[C@@H](c4ccnc5ccc(F)cc54)CC3)[nH]c2c1F (stereo partly shown) [B191]
 | 37 | COC(=O)c1ccc2[nH]c([C@H]3CC[C@@H](c4ccnc5ccc(F)cc54)CC3)nc2c1 [Example C8b, methyl 2-((1s,4s)-4-(6-fluoroquinolin-4-yl)cyclohexyl)-1H-benzo[d]imidazole-5-carboxylate]
 | 122 | COC1CCC(NC(=O)c2ccc3[nH]c(C(C)[C@H]4CC[C@@H](c5ccnc6ccc(F)cc65)CC4)nc3c2)CC1 (stereo partly shown) [Example B185, 2-(1-((1s,4s)-4-(6-fluoroquinolin-4-yl)cyclohexyl)ethyl)-N-(4-methoxycyclohexyl)-1H-benzo[d]imidazole-5-carboxamide]
 | 1.4 | C[C@@H](c1nc2cc(C(F)(F)F)ccc2[nH]1)[C@H]1CC[C@@H](c2ccnc3ccc(F)cc32)CC1 [Example B4, 6-fluoro-4-((1S,4s)-4-((R)-1-(5-(trifluoromethyl)-1H-benzo[d]imidazol-2-yl)ethyl)cyclohexyl)quinoline]
 | 14 | Fc1ccc2nccc([C@H]3CC[C@@H](c4nc5cc(C6CC6)ccc5[nH]4)CC3)c2c1 [Example C6b, 4-((1s,4s)-4-(5-cyclopropyl-1H-benzo[d]imidazol-2-yl)cyclohexyl)-6-fluoroquinoline]

The remaining lines, values behind:

Structure (SMILES) | IC50 (Recombinant IDO1) [nM] | EC50 [1] [nM]
Clc1ccc2[nH]c(CC3CCC(c4cnc5ccccc5c4)CC3)nc2c1 (stereo not shown) [Example A19, 3-(4-((5-chloro-1H-benzo[d]imidazol-2-yl)methyl)cyclohexyl)quinoline] | > 10000 | 8.2
Fc1ccc2nccc([C@H]3CC[C@H](Cc4nc5cc(C6CC6)ccc5[nH]4)CC3)c2c1 [Example A4a, 4-((1r,4r)-4-((5-cyclopropyl-1H-benzo[d]imidazol-2-yl)methyl)cyclohexyl)-6-fluoroquinoline] | > 10000 | 131
Fc1ccc([C@H]2CC[C@H](Cc3nc4cc(Cl)ccc4[nH]3)CC2)cc1 [Example A30a, 5-chloro-2-(((1r,4r)-4-(4-fluorophenyl)cyclohexyl)methyl)-1H-benzo[d]imidazole] | > 10000 | 44
Clc1ccc2[nH]c(C[C@H]3CC[C@H](c4ccc5ncccc5c4)CC3)nc2c1 [Example A23a, 6-((1r,4r)-4-((5-chloro-1H-benzo[d]imidazol-2-yl)methyl)cyclohexyl)quinoline] | > 10000 | 56
COC(=O)c1ccc2[nH]c(CC3CCC(c4ccnc5ccc(F)cc45)CC3)nc2c1 (stereo not shown) [Example A13, methyl 2-((4-(6-fluoroquinolin-4-yl)cyclohexyl)methyl)-1H-benzo[d]imidazole-5-carboxylate] | > 10000 | 8.4
Fc1cc2nc(C[C@H]3CC[C@@H](c4ccccc4)CC3)[nH]c2cc1Br [Example A37b, 6-bromo-5-fluoro-2-(((1s,4s)-4-phenylcyclohexyl)methyl)-1H-benzo[d]imidazole] | 6900 | 99
Fc1cc2nc(C[C@H]3CC[C@H](c4ccccc4)CC3)[nH]c2cc1Br [Example A37a, 6-bromo-5-fluoro-2-(((1r,4r)-4-phenylcyclohexyl)methyl)-1H-benzo[d]imidazole] | > 10000 | 223
c1ccc2nc(C3CCC(Cc4nc5ccccc5[nH]4)CC3)ccc2c1 (stereo not shown) [Example A20, 2-(4-((1H-benzo[d]imidazol-2-yl)methyl)cyclohexyl)quinoline] | > 10000 | 89
Fc1ccc2nccc(C3CCN(CCc4nc5cc(Cl)ccc5[nH]4)CC3)c2c1 [Example A38, 4-(1-(2-(5-chloro-1H-benzo[d]imidazol-2-yl)ethyl)piperidin-4-yl)-6-fluoroquinoline] | > 10000 | 143
Fc1ccc2nccc(N3CCC(Cc4nc5cc(Cl)ccc5[nH]4)CC3)c2c1 [Example A41, 4-(4-((5-chloro-1H-benzo[d]imidazol-2-yl)methyl)piperidin-1-yl)-6-fluoroquinoline] | > 10000 | 481
FC(F)(F)c1ccc2[nH]c(C[C@H]3CC[C@H](c4ccccc4)CC3)nc2c1 [Example A33a, 2-(((1r,4r)-4-phenylcyclohexyl)methyl)-5-(trifluoromethyl)-1H-benzo[d]imidazole] | > 10000 | > 10000
Fc1ccc2nccc([C@H]3CC[C@@H](Cc4nc5cc6c(cc5[nH]4)OCO6)CC3)c2c1 [Example A7b, 6-(((1s,4s)-4-(6-fluoroquinolin-4-yl)cyclohexyl)methyl)-5H-[1,3]dioxolo[4′,5′:4,5]benzo[1,2-d]imidazole] |  | 3.6
FC(F)(F)c1cc(C2CCC(Cc3nc4cc(Cl)ccc4[nH]3)CC2)ccn1 (stereo not shown) [Example A29, 5-chloro-2-((4-(2-(trifluoromethyl)pyridin-4-yl)cyclohexyl)methyl)-1H-benzo[d]imidazole] |  | 179
COc1cc2nc(CC3CCC(c4ccnc5ccc(F)cc45)CC3)[nH]c2cc1Br (stereo not shown) [Example A17, 4-(4-((6-bromo-5-methoxy-1H-benzo[d]imidazol-2-yl)methyl)cyclohexyl)-6-fluoroquinoline] |  | 5
C[C@@H](c1nc2c(ccc3ccccc32)[nH]1)[C@H]1CC[C@H](c2ccnc3ccc(F)cc32)CC1 [Example B212, 2-((R)-1-((1r,4R)-4-(6-fluoroquinolin-4-yl)cyclohexyl)ethyl)-3H-naphtho[1,2-d]imidazole] |  | 27.9
CC(C)c1ccc2[nH]c(C[C@H]3CC[C@@H](c4ccnc5ccc(F)cc54)CC3)nc2c1 [Example A5b, 6-fluoro-4-((1s,4s)-4-((5-isopropyl-1H-benzo[d]imidazol-2-yl)methyl)cyclohexyl)quinoline] |  | 23
Fc1ccc2nccc(C3CCC(Cc4nc5cc(N6CCCCC6)c(Br)cc5[nH]4)CC3)c2c1 (stereo not shown) [Example A16, 4-(4-((6-bromo-5-(piperidin-1-yl)-1H-benzo[d]imidazol-2-yl)methyl)cyclohexyl)-6-fluoroquinoline] |  | 251
Fc1cc2nc(C[C@H]3CC[C@@H](c4ccc(F)c5ncccc54)CC3)[nH]c2cc1F [Example A26b, 5-((1s,4s)-4-((5,6-difluoro-1H-benzo[d]imidazol-2-yl)methyl)cyclohexyl)-8-fluoroquinoline] |  | 205
Fc1ccc(C2CCC(Cc3nc4cc(Cl)ccc4[nH]3)CC2)c2ncccc12 (stereo not shown) [Example A24, 8-(4-((5-chloro-1H-benzo[d]imidazol-2-yl)methyl)cyclohexyl)-5-fluoroquinoline] |  | 158
CC(C)c1ccc2[nH]c(C[C@H]3CC[C@H](c4ccnc5ccc(F)cc54)CC3)nc2c1 [Example A5a, 6-fluoro-4-((1r,4r)-4-((5-isopropyl-1H-benzo[d]imidazol-2-yl)methyl)cyclohexyl)quinoline] |  | 184
